Oligonucleotides are written 5' to 3', each unit as a sugar letter and its base; * is a phosphorothioate linkage, no mark a phosphodiester; rarer units and linkages stand in square brackets, end groups in braces. Plain capitals give the bases only. k = constrained ethyl (cEt); d = 2'-deoxy (DNA)
Key:
[1] = test system: prostate-specific antigen (PSA) mRNA; experiment: PSA mRNA levels in LMR20 cells; type: cell-based, human; settings: for PSA mRNA levels (% baseline value) after treatment with DHT / PSA mRNA levels (% baseline value) after treatment with R1881 / PSA mRNA levels (% baseline value) of cells without AR agonist treatment: LMR20 cells; for PSA mRNA levels (% baseline value) after treatment with DHT: DHT 10 nM 72 hrs; for PSA mRNA levels (% baseline value) after treatment with R1881: R1881 10 nM 72 hrs; for PSA mRNA levels (% baseline value) of cells without AR agonist treatment: no AR agonist
Method: LMR20 cells were plated at 1,500 cells per well in phenol red-free medium with CSS. […] Results are presented in Tables 43-45 as mRNA levels expressed as a percentage of the baseline values. mRNA levels may be lowered or increased after treatment.

LMR20 cells = experiment: Proliferation of MDV3100-resistant LMR20 cells (MTT; with R1881 or DHT); type: cell-based, human; settings: 5 days
Method: LMR20 cells were plated at 1,500 cells per well in phenol red-free medium with charcoal-stripped fetal bovine serum (CSS), to remove any androgens from the medium (Life Technologies). […] The synthetic androgen agonist, R1881, (Takeda, A. N. et al., Mol. Pharmacol. 2007. 71: 473-82) was added on day 1 at 1 nM dose to a set of cells also treated with each of the antisense oligonucleotides. DHT was added on day 1 at a dose of 10 nM to another set of cells also treated with each of the antisense oligonucleotides. […] After a treatment period of 5 days, the proliferative ability of the cancer cells was measured by the standard MTT assay. Results are presented in Table 42 as percent inhibition of proliferation, relative to non-treated cells.

549458 (kG*kT*kT*dG*dA*dT*dT*dT*dA*dA*dT*dG*dG*kT*kT*kG) [compound 549458]
PSA mRNA levels (% baseline value) after treatment with DHT ([1]; ASO 0.04 μM): 93 % baseline value
PSA mRNA levels (% baseline value) after treatment with DHT ([1]; ASO 0.20 μM): 71 % baseline value
PSA mRNA levels (% baseline value) after treatment with DHT ([1]; ASO 1.0 μM): 47 % baseline value
PSA mRNA levels (% baseline value) after treatment with DHT ([1]; ASO 5.0 μM): 47 % baseline value
PSA mRNA levels (% baseline value) after treatment with R1881 ([1]; ASO 0.04 μM): 93 % baseline value
PSA mRNA levels (% baseline value) after treatment with R1881 ([1]; ASO 0.20 μM): 67 % baseline value
PSA mRNA levels (% baseline value) after treatment with R1881 ([1]; ASO 1.0 μM): 50 % baseline value
PSA mRNA levels (% baseline value) after treatment with R1881 ([1]; ASO 5.0 μM): 44 % baseline value
PSA mRNA levels (% baseline value) of cells without AR agonist treatment ([1]; ASO 0.04 μM): 135 % baseline value
PSA mRNA levels (% baseline value) of cells without AR agonist treatment ([1]; ASO 0.20 μM): 85 % baseline value
PSA mRNA levels (% baseline value) of cells without AR agonist treatment ([1]; ASO 1.0 μM): 50 % baseline value
PSA mRNA levels (% baseline value) of cells without AR agonist treatment ([1]; ASO 5.0 μM): 72 % baseline value

GTTGATTTAATGGTTG (all phosphorothioate, sugars by position not given here; further chemistry not fully specified) [ISIS 549458]
Percent inhibition of LMR20 cell proliferation (LMR20 cells; CSS + DHT, ASO 0.04 μM): 0%
Percent inhibition of LMR20 cell proliferation (LMR20 cells; CSS + DHT, ASO 0.20 μM): 25%
Percent inhibition of LMR20 cell proliferation (LMR20 cells; CSS + DHT, ASO 1.0 μM): 60%
Percent inhibition of LMR20 cell proliferation (LMR20 cells; CSS + DHT, ASO 5.0 μM): 70%
Percent inhibition of LMR20 cell proliferation (LMR20 cells; CSS + R1881, ASO 0.04 μM): 0%
Percent inhibition of LMR20 cell proliferation (LMR20 cells; CSS + R1881, ASO 0.20 μM): 22%
Percent inhibition of LMR20 cell proliferation (LMR20 cells; CSS + R1881, ASO 1.0 μM): 59%
Percent inhibition of LMR20 cell proliferation (LMR20 cells; CSS + R1881, ASO 5.0 μM): 74%
Percent inhibition of LMR20 cell proliferation (LMR20 cells; CSS, ASO 0.04 μM): 0%
Percent inhibition of LMR20 cell proliferation (LMR20 cells; CSS, ASO 0.20 μM): 0%
Percent inhibition of LMR20 cell proliferation (LMR20 cells; CSS, ASO 1.0 μM): 0%
Percent inhibition of LMR20 cell proliferation (LMR20 cells; CSS, ASO 5.0 μM): 5%
LMR20 cell proliferation (LMR20 cells; in the presence of R1881 or DHT, 0.04-5.0 μM): significantly inhibited MDV3100-resistant prostate cancer cell proliferation in a dose dependent manner more extensively than ISIS 554221
PSA mRNA levels in LMR20 cells ([1]; with or without DHT/R1881): reduced PSA levels and TMPRSS2 more extensively than the LNA gapmer ISIS 554221 or MDV3100
